Measured values: patent US20230286973A1, “PROTEIN SECRETION INHIBITORS” (KEZAR LIFE SCIENCES, priority 2020, published 2023)

Columns and labels:
[1] = test system: PD1-ss+10aa/Gaussia Luciferase; experiment: Dox-Induced PD1-ss-Gluc Assay; type: cell-based; conditions: 24 hr Dox induction; 293FRT/TO cells; read-out: 24 hr Dox Inducible PD1ssGluc 293FRT/TO: Mean IC50
Outline: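 The cell line was made by transfecting Flp-In 293 T-REx cells with a PD1 signal sequence+10aa–Gaussia luciferase fusion under T-REx control and selecting with hygromycin and blasticidin. Cells were seeded, and next day compound plus doxycycline was added at 37 °C, 5% CO2.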

[2] = test system: TNFα-FL/Gaussia Luciferase; experiment: Dox Induced TNFα-FL-Gluc Assay; type: cell-based; conditions: for IC50: 24 hr Dox induction, 293FRT/TO cells, read-out: 24 hr Dox Inducible TNFaFLGluc 293FRT/TO: Mean IC50; for 24 hr Dox Inducible TNFaFLGluc 293FRT/TO: TNF/PD1: ratio of TNFaFLGluc IC50 to PD1ssGluc IC50
From the text: (§1) Flp-In 293 T-REx™ cells were transfected with pcDNA™5/FRT/TO plasmid inserted with cDNA encoding Gaussia Luciferase fused to the 3′ end of cDNA encoding full length TNFα (amino acids 1-233). Transfected cells were selected for resistance to the selectable markers Hygromycin and Blasticidin to create a stable cell line that contained the TNFα-FL/Gaussia Luciferase cDNA insert whose expression was regulated under the T-REx™ system. The day before assay, cells were trypsinized and plated in 384-well tissue culture plates. The next day, compound dilutions in DMSO/media containing doxycycline were added to the wells and incubated at 37° C., 5% CO2.
(§2) For chemical structures that include one or more stereoisomers, but are illustrated without indicating stereochemistry, the assay data refers to a mixture of stereoisomers.

[3] = test system: HER3-ss+4aa/Gaussia Luciferase; experiment: Dox-Induced Her3-ss-Gluc Assay; type: cell-based; conditions: 24 hr Dox induction; 293FRT/TO cells; read-out: 24 hr Dox Inducible Her3(ss + 4)Gluc 293FRT/TO: Mean IC50
From the text: as §1, with “HER3 signal sequence plus 4 amino” for “full length TNFα (amino”, “(N-[…]-C) (SEQ ID NO: 2).” for “1-233).”, “HER3-ss+4aa/Gaussia” for “TNFα-FL/Gaussia”
as §2

[4] = test system: IL-2-FL/Gaussia Luciferase; experiment: Dox Induced IL2-FL-Gluc Assay; type: cell-based; conditions: for IC50: 24 hr Dox induction, 293FRT/TO cells, read-out: 24 hr Dox Inducible IL2FLGluc 293FRT/TO: Mean IC50; for 24 hr Dox Inducible IL2FLGluc 293FRT/TO: IL2/PD1: ratio of IL2FLGluc IC50 to PD1ssGluc IC50
Outline: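 Doxycycline induces an IL-2(1-153)–Gaussia luciferase fusion in a stable Flp-In 293 T-REx line. Compound exposure runs alongside induction at 37° C.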

[5] = test system: multiple myeloma cell line NCI-H929; experiment: H929 Cell Viability Assay; type: cell-based, human; conditions: Homo sapiens, NCI-H929, 48 h, NCI-H929 cells, Celltiter-Glo
Outline: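 Viability is scored by CellTiter-Glo luminescence following a 48-hour treatment at 37° C. Data for structures shown without stereochemistry refer to stereoisomer mixtures.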

[6] = test system: multiple myeloma cell line U266B1; experiment: U266 Cell Viability Assay; type: cell-based, human; conditions: Homo sapiens, U-266, 48 h, U266B1 cells, Celltiter-Glo
Outline: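 Viability is measured as luciferase signal from CellTiter-Glo following a 48-hour incubation with compound at 37° C. under 5% CO2. Where structures lack drawn stereochemistry, values refer to stereoisomer mixtures.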

[7] = Liver Microsome Stability Assay (rat); conditions: rat liver microsomes, with NADPH, 1.0 uM compound
Protocol: (§3) Stability of a compound was assessed in the presence of liver microsomes from various sources—mouse, rat, monkey and human liver microsomes. 1.0 uM compound, 0.4% DMSO in 0.1 M Potassium Phosphate with 1.0 mg/mL liver microsomes, were incubated at 37° C. with or without 1 mM NADPH. The samples were quenched at 0, and 30 minutes.

[8] = Liver Microsome Stability Assay (mouse); conditions: mouse liver microsomes, with NADPH, 1.0 uM compound
Protocol: as §3

[9] = Liver Microsome Stability Assay (human); conditions: human liver microsomes, with NADPH, 1.0 uM compound
Protocol: as §3

[10] = Liver Microsome Stability Assay (monkey); conditions: monkey liver microsomes, with NADPH, 1.0 uM compound
Protocol: as §3

Structure (SMILES) | IC50 [1] [nM] | IC50 [2] [nM] | 24 hr Dox Inducible TNFaFLGluc 293FRT/TO: TNF/PD1 [2] | IC50 [3] [nM] | IC50 [4] [nM] | 24 hr Dox Inducible IL2FLGluc 293FRT/TO: IL2/PD1 [4] | EC50 [5] [nM] | EC50 [6] [nM] | Liver Microsome Stability (Multiple Species): Rat - % Remaining after 30 min w/NADPH [7] [%] | Liver Microsome Stability (Multiple Species): Mouse - % Remaining after 30 min w/NADPH [8] [%] | Liver Microsome Stability (Multiple Species): Human - % Remaining after 30 min w/NADPH [9] [%] | Liver Microsome Stability (Multiple Species): Monkey - % Remaining after 30 min w/NADPH [10] [%]
O=C(Nc1nc([C@H]2CCCN2c2ccc(OC3COC3)cc2)cs1)c1cccn1Cc1ccncc1 [Compound A2, (R)-N-(4-(1-(4-(oxetan-3-yloxy)phenyl)pyrrolidin-2-yl)thiazol-2-yl)-1-(pyridin-4-ylmethyl)-1H-pyrrole-2-carboxamide] | 18.2 | 211 | 11.6 | 31.4 | 34 | 1.9 | 1340 | > 25000 | 7.5 | 6.6 | 0.92 | 0.18
O=C(Nc1nc([C@H]2CCCN2c2ccc(O[C@@H]3CCOC3)cc2)cs1)c1cccn1Cc1ccncc1 [Compound A3, 1-(pyridin-4-ylmethyl)-N-(4-((R)-1-(4-(((R)-tetrahydrofuran-3-yl)oxy)phenyl)pyrrolidin-2-yl)thiazol-2-yl)-1H-pyrrole-2-carboxamide] | 15.6 | 171 | 11 | 33.5 | 26 | 1.7 | 530 | > 25000 | 20.1 | 9 | 2.33 | 0.62
O=C(Nc1nc([C@H]2CCCN2c2ccc(O[C@H]3CCOC3)cc2)cs1)c1cccn1Cc1ccncc1 [Compound A4, 1-(pyridin-4-ylmethyl)-N-(4-((R)-1-(4-(((S)-tetrahydrofuran-3-yl)oxy)phenyl)pyrrolidin-2-yl)thiazol-2-yl)-1H-pyrrole-2-carboxamide] | 16 | 155 | 9.69 | 26.8 | 25.7 | 1.6 | 430 | > 25000 | 15.4 | 9.36 | 4.21 | 0.36
CC(C)Oc1ccc(N2CCC[C@@H]2c2csc(NC(=O)c3cccn3Cc3ccncc3)n2)cc1 [Compound A5, (R)-N-(4-(1-(4-isopropoxyphenyl)pyrrolidin-2-yl)thiazol-2-yl)-1-(pyridin-4-ylmethyl)-1H-pyrrole-2-carboxamide] | 14.7 | 87 | 5.92 | 25.8 | 22.7 | 1.5 | 448 | > 25000 | 26.5 | 13 | 10.4 | 4.26
CC(=O)N1CCC(Oc2ccc(N3CCC[C@@H]3c3csc(NC(=O)c4cccn4Cc4ccncc4)n3)cc2)CC1 [Compound A7, (R)-N-(4-(1-(4-((1-acetylpiperidin-4-yl)oxy)phenyl)pyrrolidin-2-yl)thiazol-2-yl)-1-(pyridin-4-ylmethyl)-1H-pyrrole-2-carboxamide] | 13.8 | 330 | 23.8 | 25.2 | 35.6 | 2.6 | 497 | > 25000 | 5.67 | 39.9 | 4.64 | 3.56
CN1CCC(Oc2ccc(N3CCC[C@@H]3c3csc(NC(=O)c4cccn4Cc4ccncc4)n3)cc2)CC1 [Compound A8, (R)-N-(4-(1-(4-((1-methylpiperidin-4-yl)oxy)phenyl)pyrrolidin-2-yl)thiazol-2-yl)-1-(pyridin-4-ylmethyl)-1H-pyrrole-2-carboxamide] | 293 | 13400 | 45.5 | 588 | 806 | 2.7 | 2000 | 2940 | 11 | 3.14 | 3.14 | 11.3
CNc1ccc(N2CCC[C@@H]2c2csc(NC(=O)c3cccn3Cc3ccncc3)n2)cc1 [Compound A15] | 34.2 | 875 | 25.6 | 72.5 | 97.1 | 2.8 | 767 | 7350 | 17.7 | 10.5 | 5.24 | 1.86
CN(C)c1ccc(N2CCC[C@@H]2c2csc(NC(=O)c3cccn3Cc3ccncc3)n2)cc1 [Compound A16, (R)-N-(4-(1-(4-(dimethylamino)phenyl)pyrrolidin-2-yl)thiazol-2-yl)-1-(pyridin-4-ylmethyl)-1H-pyrrole-2-carboxamide] | 5.06 | 127 | 25 | 8.37 | 10.6 | 2.1 | 119 | 2140 | 0.15 | 0.26 | 0.34 | 0.17
CNC(=O)c1ccc(N2CCC[C@@H]2c2csc(NC(=O)c3cccn3Cc3ccncc3)n2)cc1 [Compound A17, (R)-N-(4-(1-(4-(methylcarbamoyl)phenyl)pyrrolidin-2-yl)thiazol-2-yl)-1-(pyridin-4-ylmethyl)-1H-pyrrole-2-carboxamide] | 6.69 | 178 | 26.6 | 11.5 | 16.7 | 2.5 | 161 | > 25000 | 0.38 | 2.94 | 0.32 | 0.22
